Our source for the melting point and IC50 values is US7638532B2, “3-aryloxy-8-aza-bicyclo[3.2.1]oct-6-ene derivatives and their use as monoamine neurotransmitter re-uptake inhibitors” (NeuroSearch A/S, priority 2005, dated 2009).

Data set [1] has as its target T1, reuptake of noradrenaline (NA) in synaptosomes (Rattus norvegicus, UniProt Q9WTR4).
T1 construct: in synaptosomes as described in WO 97/16451; from tissue
The data set is described as follows: Inhibition of noradrenaline (NA) reuptake in synaptosomes. In kind it is biochemical.

Data set [2] concerns the target T2, reuptake of dopamine (DA) in synaptosomes (Rattus norvegicus, UniProt P23977).
T2 construct: in synaptosomes as described in WO 97/16451; from tissue
The data set is described as follows: Inhibition of dopamine (DA) reuptake in synaptosomes. The class given is biochemical.

For data set [3], the target named is T3, reuptake of serotonine (5-HT) in synaptosomes (Rattus norvegicus, UniProt P31652).
T3 construct: in synaptosomes as described in WO 97/16451; from tissue
T3 sequence (P31652 whole entry): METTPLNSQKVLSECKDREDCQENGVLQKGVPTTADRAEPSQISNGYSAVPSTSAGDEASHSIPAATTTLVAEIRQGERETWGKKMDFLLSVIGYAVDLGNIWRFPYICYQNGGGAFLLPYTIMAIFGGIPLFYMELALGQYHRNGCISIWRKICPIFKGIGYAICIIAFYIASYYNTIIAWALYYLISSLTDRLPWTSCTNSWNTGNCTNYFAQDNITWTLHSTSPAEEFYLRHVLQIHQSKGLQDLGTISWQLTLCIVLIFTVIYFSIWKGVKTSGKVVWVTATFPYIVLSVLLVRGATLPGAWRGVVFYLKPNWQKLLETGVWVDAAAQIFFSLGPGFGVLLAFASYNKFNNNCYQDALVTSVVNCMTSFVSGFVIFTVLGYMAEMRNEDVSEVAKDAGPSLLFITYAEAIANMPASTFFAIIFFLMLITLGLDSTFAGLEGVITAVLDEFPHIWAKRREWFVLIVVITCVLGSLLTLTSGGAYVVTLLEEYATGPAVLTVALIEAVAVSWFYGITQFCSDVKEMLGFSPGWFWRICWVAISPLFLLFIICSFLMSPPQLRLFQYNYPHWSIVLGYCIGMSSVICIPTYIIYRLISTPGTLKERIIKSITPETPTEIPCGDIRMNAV
The data set is described as follows: Inhibition of serotonine (5-HT) reuptake in synaptosomes. In kind it is biochemical.

SMILES strings stand for the structures. Structures can show the parent of a compound that is named as a salt. Where two headings read alike, the source gives them in different places.

T1 sequence (Q9WTR4 1-597): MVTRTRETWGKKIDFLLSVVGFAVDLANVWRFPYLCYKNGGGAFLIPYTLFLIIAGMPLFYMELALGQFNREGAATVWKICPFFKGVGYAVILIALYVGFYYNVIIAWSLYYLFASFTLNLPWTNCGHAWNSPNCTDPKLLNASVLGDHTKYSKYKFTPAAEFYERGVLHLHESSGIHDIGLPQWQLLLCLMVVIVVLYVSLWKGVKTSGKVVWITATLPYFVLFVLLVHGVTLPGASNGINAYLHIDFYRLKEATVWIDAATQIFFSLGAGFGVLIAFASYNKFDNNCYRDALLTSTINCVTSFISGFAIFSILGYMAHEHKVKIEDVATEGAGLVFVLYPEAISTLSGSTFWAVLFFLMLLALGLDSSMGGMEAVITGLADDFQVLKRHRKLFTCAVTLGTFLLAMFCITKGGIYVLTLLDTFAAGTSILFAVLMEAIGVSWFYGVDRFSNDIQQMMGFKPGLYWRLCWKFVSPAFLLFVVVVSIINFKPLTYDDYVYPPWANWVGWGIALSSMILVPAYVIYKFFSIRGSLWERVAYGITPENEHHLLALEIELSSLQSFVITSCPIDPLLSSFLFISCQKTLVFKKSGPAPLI
T2 sequence (P23977 whole entry): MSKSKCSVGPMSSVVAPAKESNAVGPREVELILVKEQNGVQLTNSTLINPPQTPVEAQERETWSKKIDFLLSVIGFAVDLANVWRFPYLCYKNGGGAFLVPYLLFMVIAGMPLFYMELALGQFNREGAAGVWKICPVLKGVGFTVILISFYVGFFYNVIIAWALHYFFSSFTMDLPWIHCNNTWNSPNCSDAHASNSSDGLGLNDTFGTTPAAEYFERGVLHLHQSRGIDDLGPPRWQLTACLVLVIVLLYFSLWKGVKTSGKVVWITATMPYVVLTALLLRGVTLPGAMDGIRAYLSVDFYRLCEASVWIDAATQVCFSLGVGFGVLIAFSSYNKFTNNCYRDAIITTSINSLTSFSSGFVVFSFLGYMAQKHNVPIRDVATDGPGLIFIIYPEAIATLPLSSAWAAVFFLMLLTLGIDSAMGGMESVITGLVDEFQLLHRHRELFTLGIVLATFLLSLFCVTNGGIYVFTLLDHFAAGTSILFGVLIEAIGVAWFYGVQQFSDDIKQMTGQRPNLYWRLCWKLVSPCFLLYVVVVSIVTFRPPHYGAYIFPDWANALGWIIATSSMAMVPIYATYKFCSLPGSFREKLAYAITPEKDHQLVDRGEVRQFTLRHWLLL

Usually melting point stands for the temperature, or range, at which the solid turns liquid. `Clc1ccc(O[C@@H]2C[C@H]3C=C[C@@H](C2)N3)cc1Cl` (as salt: hydrochloric acid salt) [1st compound of method A, exo-3-(3,4-Dichloro-phenoxy)-8-aza-bicyclo[3.2.1]oct-6-ene hydrochloric acid salt]: the melting point was 200 °C (dec.).

Broadly, the IC50 is the concentration needed to halve the response being measured. With `Clc1ccc(O[C@@H]2C[C@H]3C=C[C@@H](C2)N3)cc1Br` [2nd compound of method A, exo-3-(3-Bromo-4-chloro-phenoxy)-8-aza-bicyclo[3.2.1]oct-6-ene hydrochloric acid salt], the figures for the IC50 in data set [1], in data set [2] and in data set [3] were 110 nM, 170 nM and 21 nM, respectively.

Compound `Clc1ccc(O[C@@H]2C[C@H]3C=C[C@@H](C2)N3)cc1Br` (as salt: hydrochloric acid salt) [2nd compound of method A, exo-3-(3-Bromo-4-chloro-phenoxy)-8-aza-bicyclo[3.2.1]oct-6-ene hydrochloric acid salt] displayed a melting point of 240 to 243 °C.

In the case of `COc1ccc2cc(O[C@@H]3C[C@H]4C=C[C@@H](C3)N4C)ccc2c1` [3rd compound of method B, exo-3-(6-Methoxy-naphthalen-2-yloxy)-8-methyl-8-aza-bicyclo[3.2.1]oct-6-ene free base], the melting point was 240 °C (dec.). Besides, in data set [1] (3H-NA, synaptosomes, read-out: NA-uptake IC50), the IC50 is 170 nM. In addition, the half-maximal inhibitory concentration (IC50) in data set [2] (3H-DA, synaptosomes, read-out: DA-uptake IC50) stood at 110 nM. In addition, the IC50 in data set [3] (3H-5-HT, synaptosomes, read-out: 5-HT-uptake IC50) amounted to 480 nM.

For the compound `Clc1ccc(O[C@@H]2C[C@H]3C=C[C@@H](C2)N3)cc1Cl` [1st compound of method A, exo-3-(3,4-Dichloro-phenoxy)-8-aza-bicyclo[3.2.1]oct-6-ene hydrochloric acid salt], the IC50 in data set [1] stood at 27 nM; in data set [2], 220 nM; in data set [3] it was 2.5 nM.
